From PubChem BioAssay AID588407 (The Scripps Research Institute Molecular Screening Center, 2011)
pEC50: −log10 of the molar value. Calls of active or inactive are those of the source. How the calls were made is not given here.

Biological target: Mu-type opioid receptor (Homo sapiens) + Delta-type opioid receptor (Homo sapiens) (UniProt P35372+P41143)
Test: OPRM1-OPRD1 heterodimer agonist potency – cell-based, luminescence, dose response (AID 588407);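 further: potency of agonists raising the heterodimer signal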
Conditions: cells, MOR-DOR heterodimerization

Mu-type opioid receptor (Homo sapiens) + Delta-type opioid receptor (Homo sapiens), sequence (P35372 whole entry, looked up): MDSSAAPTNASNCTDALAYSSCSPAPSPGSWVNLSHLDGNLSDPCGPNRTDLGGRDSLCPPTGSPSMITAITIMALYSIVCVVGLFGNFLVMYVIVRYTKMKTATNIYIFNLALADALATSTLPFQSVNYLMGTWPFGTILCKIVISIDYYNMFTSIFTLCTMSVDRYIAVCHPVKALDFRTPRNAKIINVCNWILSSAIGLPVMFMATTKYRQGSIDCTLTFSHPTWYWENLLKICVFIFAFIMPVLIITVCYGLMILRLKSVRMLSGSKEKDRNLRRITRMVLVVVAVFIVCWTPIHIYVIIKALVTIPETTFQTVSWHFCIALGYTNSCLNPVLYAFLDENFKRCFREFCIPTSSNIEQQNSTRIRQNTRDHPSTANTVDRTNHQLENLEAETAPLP
Mu-type opioid receptor (Homo sapiens) + Delta-type opioid receptor (Homo sapiens), sequence (P41143 whole entry, looked up): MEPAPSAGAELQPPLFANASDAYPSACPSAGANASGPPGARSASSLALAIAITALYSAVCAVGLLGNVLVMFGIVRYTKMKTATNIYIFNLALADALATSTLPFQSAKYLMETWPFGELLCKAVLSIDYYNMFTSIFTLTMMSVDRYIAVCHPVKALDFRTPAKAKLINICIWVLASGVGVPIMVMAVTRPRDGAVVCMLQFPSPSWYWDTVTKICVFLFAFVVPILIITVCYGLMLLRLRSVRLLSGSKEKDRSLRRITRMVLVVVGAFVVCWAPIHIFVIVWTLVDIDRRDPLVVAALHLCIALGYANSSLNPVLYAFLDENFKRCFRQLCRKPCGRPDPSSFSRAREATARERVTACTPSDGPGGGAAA

SMILES | EC50 | pEC50
CSCCCNC(=O)c1ccc(OC2CCN(CCc3ccccc3)CC2)cc1 | inactive | 
CC(=O)CSc1ccc(-c2nc3cc(C)c(C)cc3[nH]2)cn1 | inactive | 
CN1C2C=C(N(CCc3ccccc3)C(=O)c3ccc(Cl)cc3)CC1CC2 (stereo not given) | inactive | 
COc1ccc2c(Cl)c(-c3nnc(SCC(=O)c4ccccc4)n3C)sc2c1 |  | 6.03
CCOC(=O)C1(CCOC)CCN(Cc2ccccc2-c2ccco2)CC1 |  | 5.50
CC(C)n1ncc2c(C(=O)Nc3cccc(C#N)c3)cc(C3CC3)nc21 |  | 5.44
Cc1occc1C(=O)N/N=C/c1ccc(-c2ccccc2)cc1 | > 92.4 µM (inactive) | 
Cc1cc(/C=C2\SC(=S)N(C)C2=O)c(C)n1-c1ccc(O)cc1 | inactive | 
Nc1nonc1C(=O)NCCNCc1c(OCc2ccccc2F)ccc2ccccc12 | inactive | 
CCOC(=O)C1(Cc2ccccc2)CCN(Cc2cccn2-c2cccnc2)CC1 | inactive | 
COc1ccc(-c2csc(N(CCCN(C)C)C(=O)c3cccs3)n2)cc1 | inactive | 
COc1cc(C(=O)OC(C)C(=O)NCC2CCCCC2)cc(NC(=O)c2ccco2)c1OC (stereo not given) | > 92.5 µM (inactive) | 
CC1=C/C(=N\OS(=O)(=O)c2ccccc2)C(C)=CC1=O | inactive | 
Cc1ccc(NC(=O)c2ncn(CCCN[C@H](C)c3cccc4ccccc34)n2)cc1C |  | 5.01
CC[C@@H](C)[C@@H]1CN([C@@H](CN2CCC[C@H]2CN2C(N)=NC[C@H]2C(C)C)C(C)C)C(=N)N1CCc1ccc(Cl)c(Cl)c1 |  | 5.63
COc1ccc2c(c1)C=C(CN1CCC(CO)(CCc3ccccc3)CC1)CO2 | inactive | 
OCC1(CCc2ccccc2)CCN(Cc2cc(F)ccc2-n2cccn2)CC1 |  | 5.33
CN(C)C(CNC(=O)Cc1ccc(Br)cc1)c1ccccc1 (stereo not given) |  | 6.04
O=C(C=P(c1ccccc1)(c1ccccc1)c1ccccc1)c1ccccc1-c1ccccc1C(=O)C=P(c1ccccc1)(c1ccccc1)c1ccccc1 | > 92.5 µM (inactive) | 
CN(C)C(CNC(=O)CSC(=S)N1CCCC1)c1ccccc1 (stereo not given) |  | 6.01
Oc1ccc(Oc2ccc3c(C(F)(F)F)cc(C(F)(F)F)nc3n2)cc1 | inactive | 
Cc1ccccc1Cn1c(O)c(N=NC(=S)Nc2ccccc2F)c2ccccc21 | > 92.5 µM (inactive) | 
CCOC(=O)c1c(C)[nH]c(C(=O)OC/C(O)=C(\C#N)c2nc3ccccc3[nH]2)c1C | > 92.5 µM (inactive) | 
CN(C)C(CNC(=S)Nc1ccccc1Cl)c1cccnc1 (stereo not given) |  | 6.28
CCN1CCN(c2ccc([N+](=O)[O-])c(Sc3nc4ccccc4[nH]3)c2)CC1 |  | 5.33

SMILES | EC50 | pEC50
O=C(OC1C2CCC1C1CN(CCc3ccccc3)CC12)c1ccccc1 (stereo not given) | inactive | 
c1ccc(C2(N3CCCCC3)CCCCC2)cc1 |  | 6.02
CC(C)c1ccc(NC(=O)N(CCc2nc3ccccc3[nH]2)C2CCCC2)cc1 | inactive | 
CN(C)S(=O)(=O)c1ccc(-c2csc(N/N=C/c3ccc(O)cc3)n2)cc1 |  | 5.00
COc1ccc(C(CNC(=O)C(Cc2ccccc2)NC(N)=O)N(C)C)cc1 (stereo not given) | inactive | 
CCC1(C)CC(CCNCc2ccc(N(C)C)cc2)(c2ccc(F)cc2)CCO1 (stereo not given) |  | 5.54
Cc1ccc(Cn2c(=N)n(CC(O)COc3ccccc3)c3ccccc32)cc1 (stereo not given) | inactive | 
O=C(NCCc1ccc(Cl)cc1)C1CCC(CNc2nc(=S)[nH]c3ccccc23)CC1 (stereo not given) | > 92.5 µM (inactive) | 
Cc1ccc(C)c(-n2cc(CNCCc3cnccn3)c(-c3ccccc3)n2)c1 |  | 5.00
CN(C)C(CNC(=O)c1cnc(Cl)c(Cl)c1)c1ccccc1 (stereo not given) |  | 6.26
Cc1cccc(NC(=S)NC(=O)CCc2ccccc2)c1 | > 92.5 µM (inactive) | 
O=C(c1sc2ccccc2c1Cl)N(Cc1ccco1)C1CCS(=O)(=O)C1 (stereo not given) | inactive | 
CN(C)C(CNC(=O)c1cc2ccccc2o1)c1ccco1 (stereo not given) | > 92.5 µM (inactive) | 
CCOC(=O)C1(CC2CCCCO2)CCN(Cc2c(C)cc(C)cc2-n2cccn2)CC1 (stereo not given) |  | 6.28
COCCCn1c(N)c(-c2nc3ccccc3n2C)c2nc3ccccc3nc21 |  | 5.38
CCOC(=O)C1(CCOc2ccccc2)CCN(Cc2ccc(C)s2)CC1 | inactive | 
CCOC(=O)C1(CC2CC2)CCN(Cc2cnc(-c3ccccc3C)nc2)CC1 | inactive | 
Cc1nc(N2CCN(c3ccccn3)CC2)c2c(C)c(C(=O)N3CCN(c4ccc(F)cc4)CC3)sc2n1 |  | 5.66
Cc1cc(C)cc(C(=O)N(CCc2ccccc2)C2=CC3CCC(C2)N3C)c1 (stereo not given) |  | 5.23
CCc1cccc(C)c1NC(=S)NCC(c1cccnc1)N(C)C (stereo not given) |  | 5.43
Cc1cccc(NC(=S)NCC(c2cccnc2)N(C)C)c1C (stereo not given) |  | 6.52
O=S(=O)(NC1CC1)c1ccc(S(=O)(=O)N2CCCC3(CCCCC3)C2)cc1 | inactive | 
COCCN(C(=O)C1CC(=O)N(Cc2ccccc2)C1)c1nc(-c2ccc([N+](=O)[O-])cc2)cs1 (stereo not given) |  | 5.25
CCCc1nc2c(=O)n(C)c(=O)nc-2n(C)n1 | > 92.5 µM (inactive) | 
CCc1ccc(NC(=O)Nc2ccc3c(c2)N(C)C(=O)CS3)cc1 |  | 5.03
